The target in this test is T1, 5-HT1A serotonin receptors (Rattus norvegicus, UniProt P19327).
T1 construct: rat hippocampal membrane homogenate; from tissue; host or cells: rat hippocampus, membrane homogenate
T1 sequence (P19327 1-422): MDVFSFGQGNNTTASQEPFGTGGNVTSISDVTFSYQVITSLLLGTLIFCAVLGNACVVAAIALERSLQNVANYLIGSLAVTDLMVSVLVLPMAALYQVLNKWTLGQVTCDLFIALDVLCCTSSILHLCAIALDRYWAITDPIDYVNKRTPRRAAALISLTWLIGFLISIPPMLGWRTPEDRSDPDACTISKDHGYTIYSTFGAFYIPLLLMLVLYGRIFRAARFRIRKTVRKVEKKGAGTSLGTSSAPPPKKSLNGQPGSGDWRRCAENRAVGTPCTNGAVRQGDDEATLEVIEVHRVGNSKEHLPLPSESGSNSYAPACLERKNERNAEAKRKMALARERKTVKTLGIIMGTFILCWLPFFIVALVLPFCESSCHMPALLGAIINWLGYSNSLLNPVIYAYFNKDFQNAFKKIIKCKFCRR
The test can be described thus: displacement of [3H] 8-OHDPAT from 5-HT1A serotonin receptors in rat hippocampal membrane homogenate. The class given is binding. The conditions noted are these: [3H] 8-OHDPAT displacement. The source says:
High affinity for the serotonin 5-HT1A receptor was established by testing the claimed compound's ability to displace [^3 H] 8-OHDPAT (dipropylaminotetralin) from the 5-HT1A serotonin receptors in rat hippocampal membrane homogenate following the procedure of B. S. Alexander and M. D. Wood, J. Pharm. Pharmacol. 1988, 40, 888-891. […] Based upon this receptor binding data, the compounds of this invention are characterized as anxiolytic and/or antidepressant agents useful in the treatment of depression and in alleviating anxiety. As such, the compounds may be administered neat or with a pharmaceutical carrier to a patient in need thereof. The pharmaceutical carrier may be solid or liquid.
For orientation: In a radioligand displacement assay an active substance lowers the binding of a labelled ligand.

Our source for the IC50 values is patent US5519025A, “4-indolylpiperazinyl derivatives” (American Home Products Corporation, priority 1995, dated 1996).

In turn, `CC1(C(=O)N[C@@H](CN2CCN(c3cccc4[nH]ccc34)CC2)c2ccccc2)CCCCC1` [Example 1] registered a half-maximal inhibitory concentration (IC50) of 4.33 nM.

`CC1(C(=O)N[C@H](CN2CCN(c3cccc4[nH]ccc34)CC2)c2ccccc2)CCCCC1` [Example 2] returned a concentration for half-maximal inhibition (IC50) of 35.5 nM.

One may read the IC50 as the point on the concentration scale where inhibition reaches its midpoint. Read a high IC50 as weaker potency.
